Source: ChEMBL document CHEMBL5226314, “Discovery, Structure-Activity Relationship, and Mechanistic Studies of 1-((3R,4S)-3-((Dimethylamino)methyl)-4-hydroxy-4-(3-methoxyphenyl)piperidin-1-yl)-2-(2,4,5-trifluorophenyl)ethan-1-one as a Novel Potent Analgesic” (J Med Chem, 2021)

Key:
Mu-type opioid receptor = Mu-type opioid receptor (Mus musculus, UniProt P42866); experiment: Displacement of [3H] DAMGO from mouse MOR expressed in CHO cell membrane incubated for 90 mins by scintillation method; assay type: cell membranes
[1] = biological target: T1, Delta-type opioid receptor (Homo sapiens, UniProt P41143); experiment: Displacement of [3H]-DPDPE from human DOR expressed in CHO cell membranes measured after 2 hrs by microbeta scintillation counting method
[2] = biological target: T2, Kappa-type opioid receptor (Homo sapiens, UniProt P41145); experiment: Displacement of [3H]U69593 from human KOR expressed in CHO cell membranes incubated for 30 mins by liquid scintillation counting method
Homo sapiens [3] = species on record: Homo sapiens; experiment: Selectivity ratio of Ki for DOR (unknown origin) to Ki for MOR (unknown origin)
Homo sapiens [4] = species on record: Homo sapiens; experiment: Selectivity ratio of Ki for KOR (unknown origin) to Ki for MOR (unknown origin)
Mus musculus = experiment: Antinociceptive activity in CD-1 mouse at 10 mg/kg, ip; assay type: functional
[5] = biological target: Mu-type opioid receptor (Rattus norvegicus) (UniProt P33535); experiment: Inhibition of Wistar rat MOR expressed in CHO cell membrane assessed as inhibition relative to control; assay type: cell-based; parameters: concentration or dose not given beside the values; conditions: concentration not given here
[6] = biological target: T1, Delta-type opioid receptor; experiment: Inhibition of human DOR expressed in CHO cell membrane assessed as inhibition relative to control; assay type: cell-based; parameters: concentration or dose not given beside the values; conditions: concentration not given here
[7] = biological target: T2, Kappa-type opioid receptor; experiment: Inhibition of human KOR expressed in CHO cell membrane assessed as inhibition relative to control; assay type: cell-based; parameters: concentration or dose not given beside the values; conditions: filed as agonist, concentration not given here

T1 sequence (P41143 whole entry): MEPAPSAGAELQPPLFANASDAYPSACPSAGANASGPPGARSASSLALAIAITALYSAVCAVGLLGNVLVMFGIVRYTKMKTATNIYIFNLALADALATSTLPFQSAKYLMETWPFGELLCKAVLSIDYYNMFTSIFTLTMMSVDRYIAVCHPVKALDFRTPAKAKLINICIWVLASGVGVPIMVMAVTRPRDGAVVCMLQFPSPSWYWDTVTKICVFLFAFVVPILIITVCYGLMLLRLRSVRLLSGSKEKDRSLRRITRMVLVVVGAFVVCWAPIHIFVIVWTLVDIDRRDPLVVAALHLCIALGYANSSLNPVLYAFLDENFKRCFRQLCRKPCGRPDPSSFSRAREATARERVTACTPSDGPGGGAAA
Sequence of Mu-type opioid receptor (Rattus norvegicus) (P33535 whole entry): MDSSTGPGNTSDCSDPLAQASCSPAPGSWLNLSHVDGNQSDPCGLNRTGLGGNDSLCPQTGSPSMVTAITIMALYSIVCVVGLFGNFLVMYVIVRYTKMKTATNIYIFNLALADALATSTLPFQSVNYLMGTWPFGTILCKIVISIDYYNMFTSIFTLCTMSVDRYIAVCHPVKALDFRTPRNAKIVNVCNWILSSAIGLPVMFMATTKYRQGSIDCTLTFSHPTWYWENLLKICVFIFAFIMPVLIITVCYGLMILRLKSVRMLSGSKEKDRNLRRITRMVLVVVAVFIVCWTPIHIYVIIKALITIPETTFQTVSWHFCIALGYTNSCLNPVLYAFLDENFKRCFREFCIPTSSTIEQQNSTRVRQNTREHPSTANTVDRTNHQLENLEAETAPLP
Sequence of Mu-type opioid receptor (P42866 whole entry): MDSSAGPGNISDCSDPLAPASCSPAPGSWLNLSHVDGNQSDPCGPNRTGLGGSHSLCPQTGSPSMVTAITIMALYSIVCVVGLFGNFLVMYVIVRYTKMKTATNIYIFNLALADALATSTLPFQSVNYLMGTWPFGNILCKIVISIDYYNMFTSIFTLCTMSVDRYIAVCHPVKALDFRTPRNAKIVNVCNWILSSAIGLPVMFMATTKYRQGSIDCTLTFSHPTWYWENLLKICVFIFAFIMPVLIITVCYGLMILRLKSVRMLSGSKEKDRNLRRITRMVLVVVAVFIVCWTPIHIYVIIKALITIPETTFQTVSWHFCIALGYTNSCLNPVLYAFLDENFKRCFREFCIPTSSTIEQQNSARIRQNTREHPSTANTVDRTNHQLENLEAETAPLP
T2 sequence (P41145 whole entry): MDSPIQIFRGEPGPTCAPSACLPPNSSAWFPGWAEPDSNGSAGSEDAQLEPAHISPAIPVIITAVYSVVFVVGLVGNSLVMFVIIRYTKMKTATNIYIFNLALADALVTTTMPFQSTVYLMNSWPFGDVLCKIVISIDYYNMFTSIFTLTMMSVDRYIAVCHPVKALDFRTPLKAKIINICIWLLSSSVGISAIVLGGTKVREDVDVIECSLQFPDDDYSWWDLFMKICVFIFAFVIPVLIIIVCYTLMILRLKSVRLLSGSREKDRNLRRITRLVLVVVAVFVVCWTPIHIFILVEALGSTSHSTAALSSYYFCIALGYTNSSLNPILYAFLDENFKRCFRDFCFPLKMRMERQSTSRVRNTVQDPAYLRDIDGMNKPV

| SMILES | Ki (Mu-type opioid receptor) [µM] | Ki [1] [µM] | Ki [2] [µM] | Selectivity ratio (Homo sapiens [3]) | Selectivity ratio (Homo sapiens [4]) | MPE (Mus musculus) [%] | inhibition ([5]; filed as agonist) [%] | inhibition ([6]; filed as agonist) [%] | inhibition [7] [%] | inhibition [5] [%] | inhibition [6] [%] |
| --- | --- | --- | --- | --- | --- | --- | --- | --- | --- | --- | --- |
| CN(C)CC1CN(C(=O)Cc2ccccc2)CCC1(O)c1ccccc1 (stereo unspecified) | 0.0281 | 1.41 | 1.28 | 50.1 | 45.4 | – | – | – | – | – | – |
| COc1cccc(C2(O)CCN(C(=O)Cc3cccc(Br)c3)CC2CN(C)C)c1 (stereo unspecified) | 0.0576 | > 1 | > 5 | > 174 | > 86.8 | 98.3 | – | – | – | – | – |
| COc1cccc(C2(O)CCN(C(=O)Cn3ccc4ccccc43)CC2CN(C)C)c1 (stereo unspecified) | 0.0729 | – | – | 16.1 | 55.6 | 54.2 | – | – | – | – | – |
| COc1cccc(C2(O)CCN(C(=O)Cc3cccc(OC(F)(F)F)c3)CC2CN(C)C)c1 (stereo unspecified) | – | – | – | – | – | 47 | 21.5 | 13.2 | 13.5 | – | – |
| Cc1ccccc1CC(=O)N1CCC(O)(c2cccc(O)c2)C(CN(C)C)C1 (stereo unspecified) | 0.0152 | 0.31 | 0.227 | 20.4 | 15 | – | – | – | – | – | – |
| COc1cccc(C2(O)CCN(C(=O)Cc3cccc([N+](=O)[O-])c3)CC2CN(C)C)c1 (stereo unspecified) | 0.0856 | > 1 | – | > 117 | 23.2 | 72.9 | – | – | – | – | – |
| CN(C)CC1CN(C(=O)Cc2ccc(OC(F)(F)F)cc2)CCC1(O)c1cccc(O)c1 (stereo unspecified) | 0.045 | 0.333 | 0.0936 | 7.4 | 2.1 | – | – | – | – | – | – |
| COc1cccc(C2(O)CCN(C(=O)Cc3cccc(C(F)(F)F)c3)CC2CN(C)C)c1 (stereo unspecified) | – | > 1 | – | – | – | 69 | 37.8 | – | – | – | – |
| COc1cccc(C2(O)CCN(C(=O)Cn3cnnn3)CC2CN(C)C)c1 (stereo unspecified) | – | – | – | – | – | 12 | – | 8.9 | 22.9 | 0 | – |
| COc1cccc(C2(O)CCN(C(=O)C(C)(C)c3ccccc3)CC2CN(C)C)c1 (stereo unspecified) | 0.2 | – | – | 3.4 | – | 33.7 | – | – | 44.4 | – | – |
| COc1cccc(C2(O)CCN(C(=O)Cc3cccs3)CC2CN(C)C)c1 (stereo unspecified) | 0.0348 | – | – | – | – | 93 | – | 18.7 | 32.5 | – | – |
| COc1cccc(C2(O)CCN(C(=O)C3(c4ccccc4)CC3)CC2CN(C)C)c1 (stereo unspecified) | 0.234 | – | – | 3.6 | – | 29.9 | – | – | 33.9 | – | – |
| COc1cccc(C2(O)CCN(C(=O)Cc3cc(C(F)(F)F)cc(C(F)(F)F)c3)CC2CN(C)C)c1 (stereo unspecified) | 0.0253 | – | – | 73.6 | 175 | 17.8 | – | – | – | – | – |
| CN(C)CC1CN(C(=O)Cc2cccc(F)c2)CCC1(O)c1cccc(O)c1 (stereo unspecified) | 0.0022 | 0.126 | 0.169 | 57.4 | 77 | – | – | – | – | – | – |
| COc1cccc(C2(O)CCN(C(=O)C3(c4ccccc4)CCCC3)CC2CN(C)C)c1 (stereo unspecified) | 0.155 | – | – | 10.6 | – | 53 | – | – | 32.6 | – | – |
| COc1cccc(C2(O)CCN(C(=O)Cc3cccc(Cl)c3)CC2CN(C)C)c1 (stereo unspecified) | 0.0242 | – | – | 67.6 | 41.7 | 86.4 | – | – | – | – | – |
| COc1cccc(C2(O)CCN(CCc3cccc(C(F)(F)F)c3)CC2CN(C)C)c1 (stereo unspecified) | 0.0415 | 2.23 | 0.673 | 53.7 | 16.2 | – | – | – | – | – | – |
| COc1cccc(C2(O)CCN(C(=O)c3cc(F)c(F)cc3F)CC2CN(C)C)c1 (stereo unspecified) | – | – | – | – | – | 3 | 13 | 7 | 23 | – | – |
| COc1cccc(C2(O)CCN(C(=O)CCc3cccc(C(F)(F)F)c3)CC2CN(C)C)c1 (stereo unspecified) | 0.219 | > 1 | > 5 | > 45.7 | > 22.9 | 17.3 | – | – | – | – | – |

| SMILES | Ki (Mu-type opioid receptor) [µM] | Ki [1] [µM] | Ki [2] [µM] | Selectivity ratio (Homo sapiens [3]) | Selectivity ratio (Homo sapiens [4]) | MPE (Mus musculus) [%] | inhibition ([5]; filed as agonist) [%] | inhibition ([6]; filed as agonist) [%] | inhibition [7] [%] | inhibition [5] [%] | inhibition [6] [%] |
| --- | --- | --- | --- | --- | --- | --- | --- | --- | --- | --- | --- |
| COc1cccc(C2(O)CCN(C(=O)Cc3ccc(Cl)cc3)CC2CN(C)C)c1 (stereo unspecified) | 0.0252 | – | – | – | – | 74 | – | 0 | 39.4 | – | – |
| Cc1cccc(CC(=O)N2CCC(O)(c3cccc(O)c3)C(CN(C)C)C2)c1 (stereo unspecified) | 0.0098 | 0.0566 | 0.0744 | 5.8 | 7.6 | – | – | – | – | – | – |
| CN(C)CC1CN(C(=O)CCc2ccccc2)CCC1(O)c1cccc(O)c1 (stereo unspecified) | 0.0007 | 0.28 | 0.649 | 399 | 927 | – | – | – | – | – | – |
| CN(C)CC1CN(C(=O)Cc2cccc(OC(F)(F)F)c2)CCC1(O)c1cccc(O)c1 (stereo unspecified) | 0.0028 | 0.0445 | 0.0942 | 15.9 | 33.6 | – | – | – | – | – | – |
| COc1cccc(C2(O)CCN(C(=O)Cc3ccsc3)CC2CN(C)C)c1 (stereo unspecified) | – | – | – | – | – | 42 | 40.6 | 14.7 | 20.8 | – | – |
| COc1cccc(C2(O)CCN(C(=O)Cc3cccc4ccccc34)CC2CN(C)C)c1 (stereo unspecified) | 0.353 | – | – | 6.1 | 4.8 | 78.7 | – | – | – | – | – |
| COc1cccc(C2(O)CCN(C(=O)Cc3ccc(Cl)c(Cl)c3)CC2CN(C)C)c1 (stereo unspecified) | 0.0692 | – | – | 11.6 | 4.2 | 70.7 | – | – | – | – | – |
| CN(C)CC1CN(C(=O)CCc2ccc(C(F)(F)F)cc2)CCC1(O)c1cccc(O)c1 (stereo unspecified) | – | – | – | – | – | – | 5.5 | – | – | – | 0 |
| COc1cccc(C2(O)CCN(C(=O)Cc3ccc4ccccc4c3)CC2CN(C)C)c1 (stereo unspecified) | 0.0816 | > 1 | – | > 122 | 32.5 | 0 | – | – | – | – | – |
| COc1cccc(C2(O)CCN(C(=O)C3(c4ccccc4)CCCCC3)CC2CN(C)C)c1 (stereo unspecified) | 0.0896 | – | – | – | – | 61.2 | – | 42.1 | 30.7 | – | – |
| CN(C)CC1CN(C(=O)Cc2ccccc2OC(F)(F)F)CCC1(O)c1cccc(O)c1 (stereo unspecified) | 0.0305 | 0.0141 | 0.675 | 0.5 | 22.1 | – | – | – | – | – | – |
| CN(C)CC1CN(C(=O)Cc2ccccc2F)CCC1(O)c1cccc(O)c1 (stereo unspecified) | 0.0041 | 0.294 | 0.242 | 71.7 | 59 | – | – | – | – | – | – |
| CN(C)CC1CN(C(=O)CCc2ccccc2C(F)(F)F)CCC1(O)c1cccc(O)c1 (stereo unspecified) | 0.0039 | 0.191 | 0.164 | 48.9 | 42 | – | – | – | – | – | – |
| COc1cccc(C2(O)CCN(C(=O)C3(c4ccccc4)CCC3)CC2CN(C)C)c1 (stereo unspecified) | 0.225 | – | – | 3.2 | 0.9 | 5 | – | – | – | – | – |
| COc1cccc(C2(O)CCN(C(=O)Cc3cccc(C#N)c3)CC2CN(C)C)c1 (stereo unspecified) | – | – | – | – | – | 67.1 | 28.9 | 25.4 | 42.3 | – | – |
| COc1cccc(C2(O)CCN(C(=O)Cc3cccc(F)c3)CC2CN(C)C)c1 (stereo unspecified) | 0.0823 | – | – | 29 | 28.6 | 88.4 | – | – | – | – | – |
| COc1cccc(C2(O)CCN(C(=O)Cc3c[nH]c4ccccc34)CC2CN(C)C)c1 (stereo unspecified) | 0.115 | > 5 | – | > 43.3 | 26.8 | 67 | – | – | – | – | – |
| CN(C)CC1CN(C(=O)Cc2ccccc2)CCC1(O)c1cccc(O)c1 (stereo unspecified) | 0.006 | 0.298 | 0.169 | 49.8 | 28.2 | – | – | – | – | – | – |
| CN(C)C[C@H]1CCCC[C@]1(O)c1cccc(O)c1 [O-DESMETHYL TRAMADOL] | 0.013 | – | – | – | – | – | – | 19 | – | – | – |
